Results taken from patent publication US20240293423A1, “STAT DEGRADERS AND USES THEREOF” (Kymera Therapeutics, Inc., priority 2020, published 2024).

Biological target: T1, STAT3 (Homo sapiens, UniProt P40763)
T1 construct: expressed in transfected cells; host or cells: A549
Test: STAT3 HiBiT degradation assay in transfected A549 cells
Type: cell-based
Details: 24 h compound incubation, Nano-Glo HiBiT lytic detection, read-out: Cell: STAT3 HiBit A549 degradation 24 h GMean External Abs-DC50
Protocol: Compound preparation and Cell seeding: The transfected A549 cells were harvested from dish into cell culture medium and cell numbers counted. Cells were diluted with culture medium to the desired density and 30 μL of cell suspension (about 2000 cells/well) were added into each well of a 384-well cell culture plate as designated and transferred into 37° C. 5% CO2 incubator for 24 h. Compounds were dissolved to 10 mM stock solution and 12 μL of the stock solution was transferred to a 384 LDV-plate. 3 fold, 10-point dilution was performed by transferring 4 μL compound into 8 μL DMSO using a TECAN (EVO200) liquid handler. 30 μL of diluted compound from compound source plate was transferred into the cell plate as designated by using Echo550 and transferred into 37° C. 5% CO2 incubator for 24 h.
Detection: Plates were removed from incubators and equilibrated at room temperature for 15 minutes. Nano-Glo Hibit Lytic Detection reagent (Promega Cat #N3040) was thawed and equilibrated to room temperature before the experiment. 30 μL of Nano-Glo Hibit Lytic Detection reagent was added into each well to be detected. The plates were held at room temperature for 10 min followed by reading on EnSpire.
Data analysis: The remaining activity was calculated following the formula: Remaining Activity (%)=100%×(Lumsample−LumNC)/(LumPC−LumNC). Calculate the IC50 by fitting the curve using Xlfit (v5.3.1.3), equation 201: fit=(A+((B−A)/(1+((x/C)^D)))); A: Botton; B: Top; C: IC50; and D: Slope.
The letter codes for STAT3 DC50 include: A (<0.05 μM), B (0.05-0.2 μM), C (0.2-1.0 μM), and D (>1.0 μM).

T1 sequence (P40763 whole entry): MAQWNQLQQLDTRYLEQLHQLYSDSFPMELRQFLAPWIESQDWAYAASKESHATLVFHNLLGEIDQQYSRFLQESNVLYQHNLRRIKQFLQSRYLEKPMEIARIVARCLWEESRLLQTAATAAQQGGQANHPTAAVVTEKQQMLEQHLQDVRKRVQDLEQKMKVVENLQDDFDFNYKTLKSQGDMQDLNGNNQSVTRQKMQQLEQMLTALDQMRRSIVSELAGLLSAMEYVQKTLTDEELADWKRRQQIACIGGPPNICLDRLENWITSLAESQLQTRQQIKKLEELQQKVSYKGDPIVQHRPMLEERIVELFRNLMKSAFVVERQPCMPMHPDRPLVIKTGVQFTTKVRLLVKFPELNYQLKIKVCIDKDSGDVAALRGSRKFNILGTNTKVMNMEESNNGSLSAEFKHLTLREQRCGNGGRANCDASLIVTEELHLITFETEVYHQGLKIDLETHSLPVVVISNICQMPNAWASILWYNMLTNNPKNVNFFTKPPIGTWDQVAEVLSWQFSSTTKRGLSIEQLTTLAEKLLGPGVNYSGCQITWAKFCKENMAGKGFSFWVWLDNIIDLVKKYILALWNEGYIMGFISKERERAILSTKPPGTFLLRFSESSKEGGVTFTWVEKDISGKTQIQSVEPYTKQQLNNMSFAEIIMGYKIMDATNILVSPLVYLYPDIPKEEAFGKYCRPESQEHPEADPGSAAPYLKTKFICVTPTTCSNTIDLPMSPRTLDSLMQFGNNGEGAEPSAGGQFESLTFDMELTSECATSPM

| Structure (SMILES) | DC50 |
| --- | --- |
| COC(=O)N1CC[C@H]2CC[C@@H](C(=O)N[C@@H](CCC(N)=O)C(=O)N[C@H](C(=O)N3CCC(CCCc4ccc5c(c4)n(C)c(=O)n5C4CCC(=O)NC4=O)CC3)C3CCCCC3)N2C(=O)[C@@H](NC(=O)c2cc3cc(C(=O)P(=O)(O)O)ccc3[nH]2)C1 (stereo partly shown) [Compound I-18] | 200 to 1000 nM |
| COC(=O)N1CC[C@H]2CC[C@@H](C(=O)N[C@@H](CCC(N)=O)C(=O)N[C@H](C(=O)N3CCC(CCCCc4cccc5c4n(C)c(=O)n5C4CCC(=O)NC4=O)CC3)C3CCCCC3)N2C(=O)[C@@H](NC(=O)c2cc3cc(C(F)(F)P(=O)(O)O)ccc3s2)C1 (stereo partly shown) [Compound I-17] | 200 to 1000 nM |
| COC(=O)N1CC[C@H]2CC[C@@H](C(=O)N[C@@H](CCC(N)=O)C(=O)N[C@H](C(=O)N3CCC(CCC#Cc4cccc5c4n(C)c(=O)n5C4CCC(=O)NC4=O)CC3)C3CCCCC3)N2C(=O)[C@@H](NC(=O)c2cc3cc(C(=O)P(=O)(O)O)ccc3[nH]2)C1 (stereo partly shown) [Compound I-19] | 200 to 1000 nM |
| CC(=O)N1CC[C@H]2CC[C@@H](C(=O)N[C@@H](CCC(N)=O)C(=O)N[C@@H](Cc3ccc(F)c(F)c3)C(=O)N3CCC(CCC#Cc4ccc5c(c4)n(C)c(=O)n5C4CCC(=O)NC4=O)CC3)N2C(=O)[C@@H](NC(=O)c2cc3cc(C(F)(F)P(=O)(O)O)ccc3s2)C1 (stereo partly shown) [Compound I-10] | 50 to 200 nM |
| Cn1c(=O)n(C2CCC(=O)NC2=O)c2cccc(CCCC3CCN(C(=O)[C@H](Cc4ccc(F)c(F)c4)NC(=O)[C@H](CCC(N)=O)NC(=O)N4Cc5cccc6c5C4C(=O)[C@@H](NC(=O)c4cc5cc(C(=O)P(=O)(O)O)ccc5[nH]4)CC6)CC3)c21 (stereo partly shown) [Compound I-13] | 200 to 1000 nM |
| CC(=O)N1CC[C@H]2CC[C@@H](C(=O)N[C@@H](CCC(N)=O)C(=O)N[C@@H](Cc3ccc(F)c(F)c3)C(=O)N3CCC(CCCc4cccc5c4n(C)c(=O)n5C4CCC(=O)NC4=O)CC3)N2C(=O)[C@@H](NC(=O)c2cc3cc(C(=O)P(=O)(O)O)ccc3[nH]2)C1 (stereo partly shown) [Compound I-9] | 200 to 1000 nM |
| COC(=O)N1CC[C@H]2CC[C@@H](C(=O)N[C@@H](CCC(N)=O)C(=O)N[C@@H](Cc3ccc(F)c(F)c3)C(=O)N3CCC(CCC#Cc4ccc5c(c4)n(C)c(=O)n5C4CCC(=O)NC4=O)CC3)N2C(=O)[C@@H](NC(=O)c2cc3cc(C(=O)P(=O)(O)O)ccc3[nH]2)C1 (stereo partly shown) [Compound I-4] | 200 to 1000 nM |
| Cn1c(=O)n(C2CCC(=O)NC2=O)c2cccc(CCCC3CCN(C(=O)[C@H](Cc4ccc(F)c(F)c4)NC(=O)[C@H](CCC(N)=O)NC(=O)N4Cc5cccc6c5C4C(=O)[C@@H](NC(=O)c4cc5cc(C(F)(F)P(=O)(O)O)ccc5s4)CC6)CC3)c21 (stereo partly shown) [Compound I-14] | > 1000 nM |
| CC(=O)N1CC[C@H]2CC[C@@H](C(=O)N[C@@H](CCC(N)=O)C(=O)N[C@@H](Cc3ccc(F)c(F)c3)C(=O)N3CCC(CCCc4ccc5c(c4)n(C)c(=O)n5C4CCC(=O)NC4=O)CC3)N2C(=O)[C@@H](NC(=O)c2cc3cc(C(=O)P(=O)(O)O)ccc3[nH]2)C1 (stereo partly shown) [Compound I-8] | > 1000 nM |
| COC(=O)N1CC[C@H]2CC[C@@H](C(=O)N[C@@H](CCC(N)=O)C(=O)N[C@@H](Cc3ccc(F)c(F)c3)C(=O)N3CCC(CCCc4ccc5c(c4)n(C)c(=O)n5C4CCC(=O)NC4=O)CC3)N2C(=O)[C@@H](NC(=O)c2cc3cc(C(F)(F)P(=O)(O)O)ccc3s2)C1 (stereo partly drawn) [Compound I-2, (2-{[(5S,8S,10aR)-8-{[(1S)-3-carbamoyl-1-{[(2S)-3-(3,4-difluorophenyl)-1-(4-{3-[1-(2,6-dioxopiperidin-3-yl)-3-methyl-2-oxo-1,3-benzodiazol-5-yl]propyl}piperidin-1-yl)-1-oxopropan-2-yl]carbamoyl}propyl]carbamoyl}-3-(methoxycarbonyl)-6-oxo-octahydropyrrolo[1,2-a][1,5]diazocin-5-yl]carbamoyl}-1-benzothiophen-5-yl)difluoromethylphosphonic acid] | < 50 nM |
| Cn1c(=O)n(C2CCC(=O)NC2=O)c2ccc(CCCC3CCN(C(=O)[C@H](Cc4ccc(F)c(F)c4)NC(=O)[C@H](CCC(N)=O)NC(=O)[C@@H]4CC[C@@H]5CCCC[C@H](NC(=O)c6cc7cc(C(F)(F)P(=O)(O)O)ccc7s6)C(=O)N54)CC3)cc21 (stereo partly shown) [Compound I-11] | 50 to 200 nM |
| CC(=O)N1CC[C@H]2CC[C@@H](C(=O)N[C@@H](CCC(N)=O)C(=O)N[C@H](C(=O)N3CCC(CCCc4ccc5c(c4)n(C)c(=O)n5C4CCC(=O)NC4=O)CC3)C3CCCCC3)N2C(=O)[C@@H](NC(=O)c2cc3cc(C(=O)P(=O)(O)O)ccc3s2)C1 (stereo partly shown) [Compound I-30] | > 1000 nM |
| COC(=O)N1CC[C@H]2CC[C@@H](C(=O)N[C@@H](CCC(N)=O)C(=O)N[C@H](C(=O)N3CCC(CCCc4ccc5c(c4)n(C)c(=O)n5C4CCC(=O)NC4=O)CC3)C3CCCCC3)N2C(=O)[C@@H](NC(=O)c2cc3cc(C(F)(F)P(=O)(O)O)ccc3s2)C1 (stereo partly shown) [Compound I-15] | 200 to 1000 nM |
| COC(=O)N1CC[C@H]2CC[C@@H](C(=O)N[C@@H](CCC(N)=O)C(=O)N[C@@H](Cc3ccc(F)c(F)c3)C(=O)N3CCC(CCCc4cccc5c4n(C)c(=O)n5C4CCC(=O)NC4=O)CC3)N2C(=O)[C@@H](NC(=O)c2cc3cc(C(=O)P(=O)(O)O)ccc3[nH]2)C1 (stereo partly shown) [Compound I-6] | 200 to 1000 nM |
| COC(=O)N1CC[C@H]2CC[C@@H](C(=O)N[C@@H](CCC(N)=O)C(=O)N[C@H](C(=O)N3CCC(CCCCc4cccc5c4n(C)c(=O)n5C4CCC(=O)NC4=O)CC3)C3CCCCC3)N2C(=O)[C@@H](NC(=O)c2cc3cc(C(=O)P(=O)(O)O)ccc3[nH]2)C1 (stereo partly shown) [Compound I-20] | 200 to 1000 nM |
| COC(=O)N1CC[C@H]2CC[C@@H](C(=O)N[C@@H](CCC(N)=O)C(=O)N[C@@H](Cc3ccc(F)c(F)c3)C(=O)N3CCC(CCC#Cc4ccc5c(c4)n(C)c(=O)n5C4CCC(=O)NC4=O)CC3)N2C(=O)[C@@H](NC(=O)c2cc3cc(C(F)(F)P(=O)(O)O)ccc3s2)C1 (stereo partly shown) [Compound I-1] | < 50 nM |
| CC(=O)N1CC[C@H]2CC[C@@H](C(=O)N[C@@H](CCC(N)=O)C(=O)N[C@H](C(=O)N3CCC(CCC#Cc4cccc5c4n(C)c(=O)n5C4CCC(=O)NC4=O)CC3)C3CCCCC3)N2C(=O)[C@@H](NC(=O)c2cc3cc(C(=O)P(=O)(O)O)ccc3[nH]2)C1 (stereo partly shown) [Compound I-29] | > 1000 nM |
| CC(=O)N1CC[C@H]2CC[C@@H](C(=O)N[C@@H](CCC(N)=O)C(=O)N[C@H](C(=O)N3CCC(CCCCc4cccc5c4n(C)c(=O)n5C4CCC(=O)NC4=O)CC3)C3CCCCC3)N2C(=O)[C@@H](NC(=O)c2cc3cc(C(=O)P(=O)(O)O)ccc3[nH]2)C1 (stereo partly shown) [Compound I-27] | > 1000 nM |
| CC(=O)N1CC[C@H]2CC[C@@H](C(=O)N[C@@H](CCC(N)=O)C(=O)N[C@@H](Cc3ccc(F)c(F)c3)C(=O)N3CCC(CCC#Cc4ccc5c(c4)n(C)c(=O)n5C4CCC(=O)NC4=O)CC3)N2C(=O)[C@@H](NC(=O)c2cc3cc(C(=O)P(=O)(O)O)ccc3[nH]2)C1 (stereo partly shown) [Compound I-7] | 200 to 1000 nM |
| COC(=O)N1CC[C@H]2CC[C@@H](C(=O)N[C@@H](CCC(N)=O)C(=O)N[C@@H](Cc3ccc(F)c(F)c3)C(=O)N3CCC(CCCc4ccc5c(c4)n(C)c(=O)n5C4CCC(=O)NC4=O)CC3)N2C(=O)[C@@H](NC(=O)c2cc3cc(C(=O)P(=O)(O)O)ccc3[nH]2)C1 (stereo partly drawn) [Compound I-5, 2-[[(5S,8S,10aR)-8-[[(1S)-3-carbamoyl-1-[[(2S)-3-(3,4-difluorophenyl)-1-(4-[3-[1-(2,6-dioxopiperidin-3-yl)-3-methyl-2-oxo-1,3-benzodiazol-5-yl]propyl]piperidin-1-yl)-1-oxopropan-2-yl]carbamoyl]propyl]carbamoyl]-3-(methoxycarbonyl)-6-oxo-octahydropyrrolo[1,2-a][1,5]diazocin-5-yl]carbamoyl]-1H-indole-5-carbonylphosphonic acid] | 50 to 200 nM |
| COC(=O)N1CC[C@H]2CC[C@@H](C(=O)N[C@@H](CCC(N)=O)C(=O)N[C@@H](Cc3ccc(F)c(F)c3)C(=O)N3CCC(CCCc4cccc5c4n(C)c(=O)n5C4CCC(=O)NC4=O)CC3)N2C(=O)[C@@H](NC(=O)c2cc3cc(C(F)(F)P(=O)(O)O)ccc3s2)C1 (stereo partly shown) [Compound I-3] | < 50 nM |
| CC(=O)N1CC[C@H]2CC[C@@H](C(=O)N[C@@H](CCC(N)=O)C(=O)N[C@H](C(=O)N3CCC(CCCCc4cccc5c4n(C)c(=O)n5C4CCC(=O)NC4=O)CC3)C3CCCCC3)N2C(=O)[C@@H](NC(=O)c2cc3cc(C(=O)P(=O)(O)O)ccc3s2)C1 (stereo partly shown) [Compound I-32] | 200 to 1000 nM |
| COC(=O)N1CC[C@H]2CC[C@@H](C(=O)N[C@@H](CCC(N)=O)C(=O)N[C@H](C(=O)N3CCC(CCC#Cc4cccc5c4n(C)c(=O)n5C4CCC(=O)NC4=O)CC3)C3CCCCC3)N2C(=O)[C@@H](NC(=O)c2cc3cc(C(F)(F)P(=O)(O)O)ccc3s2)C1 (stereo partly shown) [Compound I-16] | 200 to 1000 nM |
| CC(=O)N1CC[C@H]2CC[C@@H](C(=O)N[C@@H](CCC(N)=O)C(=O)N[C@H](C(=O)N3CCC(CCC#Cc4cccc5c4n(C)c(=O)n5C4CCC(=O)NC4=O)CC3)C3CCCCC3)N2C(=O)[C@@H](NC(=O)c2cc3cc(C(=O)P(=O)(O)O)ccc3s2)C1 (stereo partly shown) [Compound I-31] | 50 to 200 nM |
| Cn1c(=O)n(C2CCC(=O)NC2=O)c2ccc(CCCC3CCN(C(=O)[C@H](Cc4ccc(F)c(F)c4)NC(=O)[C@H](CCC(N)=O)NC(=O)[C@@H]4CC[C@@H]5CCCC[C@H](NC(=O)c6cc7cc(C(=O)P(=O)(O)O)ccc7[nH]6)C(=O)N54)CC3)cc21 (stereo partly shown) [Compound I-12] | 200 to 1000 nM |
